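Results reflect a 48-hour exposure of cells in 96-well plates to compound at five concentrations. GI50 = concentration required for 50% inhibition of growth. Definition used: TGI = concentration required for complete inhibition of growth.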
System: DLD-1 colon
Assay: NCI anticancer screen, dose series, 48 h

| Compound | TGI | GI50 |
| --- | --- | --- |
| CN(C)CCCNc1ccc2ncn3c4ccc(O)cc4c(=O)c1c23 | 16.5 µM |  |
| Cc1ccc(NC(=O)C(=O)C2C(=O)NC(=O)NC2=O)cc1C | > 100 µM |  |
| C[n+]1c2ccccc2c(NC(CCCN=C(N)N)C(=O)O)c2ccccc21 (configuration not stated) | > 100 µM |  |
| COc1ccc(/C=N/N=C(\N)NO)c(OC)c1C | > 100 µM |  |
| CCCC(=O)[O-].CCCC(=O)[O-].NCCN.NCCN.[Co+3].[O-][Cl+3]([O-])([O-])[O-] | > 100 µM | > 100 µM |
| COc1ccc2nc3cc(Cl)ccc3c(Sc3ccc(NC(C)=O)cc3)c2c1 | > 24.1 µM |  |
| Nc1c(S(=O)(=O)c2ccccc2)c2nc3ccccc3nc2n2c1nc1ccccc12 | > 100 µM |  |
| CCCCCCCCCCCC(=O)OC[C@@H](C[As](=O)(O)O)OC(=O)CCCCCCCCCCC | 33.3 µM |  |
| Cc1c2ccc3ccccc3c2c[n+]2ccccc12 | > 100 µM |  |

System: DMS 114 small cell lung
Assay: NCI anticancer screen, dose series, 48 h

| Compound | TGI |
| --- | --- |
| CN(C)CCCNc1ccc2ncn3c4ccc(O)cc4c(=O)c1c23 | 16.7 µM |
| C[n+]1c2ccccc2c(NC(CCCN=C(N)N)C(=O)O)c2ccccc21 (configuration not stated) | > 100 µM |
| COc1ccc(/C=N/N=C(\N)NO)c(OC)c1C | 71.9 µM |
| COc1ccc2nc3cc(Cl)ccc3c(Sc3ccc(NC(C)=O)cc3)c2c1 | 14.1 µM |
| Nc1c(S(=O)(=O)c2ccccc2)c2nc3ccccc3nc2n2c1nc1ccccc12 | > 100 µM |
| CCCCCCCCCCCC(=O)OC[C@@H](C[As](=O)(O)O)OC(=O)CCCCCCCCCCC | 4.54 µM |
| CC(=O)O[C@]12CCCCCC1C1(O)C(O)CCCCC12 (some centres not stated) | > 100 µM |
| CC(=O)OC(CCC1(C)OC1COc1ccc(CCNC(=O)C=C(C)C)cc1)C(C)(C)OC(C)=O (configuration not stated) | 48.7 µM |
| Cc1c2ccc3ccccc3c2c[n+]2ccccc12 | 20.7 µM |

System: HOP-18 NSCLC
Assay: NCI anticancer screen, dose series, 48 h

| Compound | TGI |
| --- | --- |
| CN(C)CCCNc1ccc2ncn3c4ccc(O)cc4c(=O)c1c23 | 27.4 µM |
| Cc1ccc(NC(=O)C(=O)C2C(=O)NC(=O)NC2=O)cc1C | > 100 µM |
| C[n+]1c2ccccc2c(NC(CCCN=C(N)N)C(=O)O)c2ccccc21 (configuration not stated) | > 100 µM |
| COc1ccc(/C=N/N=C(\N)NO)c(OC)c1C | 60.6 µM |
| COc1ccc2nc3cc(Cl)ccc3c(Sc3ccc(NC(C)=O)cc3)c2c1 | > 53.7 µM |
| CCCCCCCCCCCC(=O)OC[C@@H](C[As](=O)(O)O)OC(=O)CCCCCCCCCCC | 27.7 µM |
| CC(=O)OC(CCC1(C)OC1COc1ccc(CCNC(=O)C=C(C)C)cc1)C(C)(C)OC(C)=O (configuration not stated) | > 100 µM |

System: KM20L2 colon
Assay: NCI anticancer screen, dose series, 48 h

| Compound | TGI | GI50 |
| --- | --- | --- |
| CC(=O)O[C@@]12CO[C@@H]1CC(O)[C@@]1(C)C(=O)[C@H](O)C3=C(C)C(O)C[C@@](O)(C(OC(=O)c4ccccc4)C12)C3(C)C (some centres not stated) | 3.31 µM |  |
| CN(C)CCCNc1ccc2ncn3c4ccc(O)cc4c(=O)c1c23 | 14.4 µM |  |
| Cc1ccc(NC(=O)C(=O)C2C(=O)NC(=O)NC2=O)cc1C | > 100 µM |  |
| C[n+]1c2ccccc2c(NC(CCCN=C(N)N)C(=O)O)c2ccccc21 (configuration not stated) | > 100 µM |  |
| CCCC(=O)[O-].CCCC(=O)[O-].NCCN.NCCN.[Co+3].[O-][Cl+3]([O-])([O-])[O-] | > 100 µM | > 100 µM |
| COc1ccc2nc3cc(Cl)ccc3c(Sc3ccc(NC(C)=O)cc3)c2c1 | > 42.1 µM |  |
| Nc1c(S(=O)(=O)c2ccccc2)c2nc3ccccc3nc2n2c1nc1ccccc12 | > 100 µM |  |
| CCCCCCCCCCCC(=O)OC[C@@H](C[As](=O)(O)O)OC(=O)CCCCCCCCCCC | 26.4 µM |  |
| CC(=O)O[C@]12CCCCCC1C1(O)C(O)CCCCC12 (some centres not stated) | > 100 µM |  |
| CC(=O)OC(CCC1(C)OC1COc1ccc(CCNC(=O)C=C(C)C)cc1)C(C)(C)OC(C)=O (configuration not stated) | > 100 µM |  |
| Cc1c2ccc3ccccc3c2c[n+]2ccccc12 | > 64.1 µM |  |

System: LXFL 529 NSCLC
Assay: NCI anticancer screen, dose series, 48 h

| Compound | TGI | GI50 |
| --- | --- | --- |
| CN(C)CCCNc1ccc2ncn3c4ccc(O)cc4c(=O)c1c23 | 17.7 µM |  |
| Cc1ccc(NC(=O)C(=O)C2C(=O)NC(=O)NC2=O)cc1C | > 100 µM |  |
| C[n+]1c2ccccc2c(NC(CCCN=C(N)N)C(=O)O)c2ccccc21 (configuration not stated) | > 100 µM |  |
| COc1ccc(/C=N/N=C(\N)NO)c(OC)c1C | > 100 µM |  |
| CCCC(=O)[O-].CCCC(=O)[O-].NCCN.NCCN.[Co+3].[O-][Cl+3]([O-])([O-])[O-] | > 100 µM | > 100 µM |
| COc1ccc2nc3cc(Cl)ccc3c(Sc3ccc(NC(C)=O)cc3)c2c1 | > 23.5 µM |  |
| Nc1c(S(=O)(=O)c2ccccc2)c2nc3ccccc3nc2n2c1nc1ccccc12 | > 100 µM |  |
| CCCCCCCCCCCC(=O)OC[C@@H](C[As](=O)(O)O)OC(=O)CCCCCCCCCCC | 17.7 µM |  |
| CC(=O)O[C@]12CCCCCC1C1(O)C(O)CCCCC12 (some centres not stated) | > 100 µM |  |
| CC(=O)OC(CCC1(C)OC1COc1ccc(CCNC(=O)C=C(C)C)cc1)C(C)(C)OC(C)=O (configuration not stated) | > 100 µM |  |
| Cc1c2ccc3ccccc3c2c[n+]2ccccc12 | 24.2 µM |  |

System: M19-MEL melanoma
Assay: NCI anticancer screen, dose series, 48 h

| Compound | TGI |
| --- | --- |
| CC(=O)O[C@@]12CO[C@@H]1CC(O)[C@@]1(C)C(=O)[C@H](O)C3=C(C)C(O)C[C@@](O)(C(OC(=O)c4ccccc4)C12)C3(C)C (some centres not stated) | > 100 µM |
| CN(C)CCCNc1ccc2ncn3c4ccc(O)cc4c(=O)c1c23 | 15.3 µM |
| Cc1ccc(NC(=O)C(=O)C2C(=O)NC(=O)NC2=O)cc1C | > 100 µM |
| C[n+]1c2ccccc2c(NC(CCCN=C(N)N)C(=O)O)c2ccccc21 (configuration not stated) | > 100 µM |
| COc1ccc2nc3cc(Cl)ccc3c(Sc3ccc(NC(C)=O)cc3)c2c1 | > 22.2 µM |
| Nc1c(S(=O)(=O)c2ccccc2)c2nc3ccccc3nc2n2c1nc1ccccc12 | > 100 µM |
| CCCCCCCCCCCC(=O)OC[C@@H](C[As](=O)(O)O)OC(=O)CCCCCCCCCCC | 19.4 µM |
| CC(=O)O[C@]12CCCCCC1C1(O)C(O)CCCCC12 (some centres not stated) | > 100 µM |
| CC(=O)OC(CCC1(C)OC1COc1ccc(CCNC(=O)C=C(C)C)cc1)C(C)(C)OC(C)=O (configuration not stated) | > 100 µM |
| Cc1c2ccc3ccccc3c2c[n+]2ccccc12 | 15.9 µM |

System: RXF-631 renal
Assay: NCI anticancer screen, dose series, 48 h

| Compound | TGI |
| --- | --- |
| CN(C)CCCNc1ccc2ncn3c4ccc(O)cc4c(=O)c1c23 | 12.2 µM |
| COc1ccc2nc3cc(Cl)ccc3c(Sc3ccc(NC(C)=O)cc3)c2c1 | > 100 µM |
| Nc1c(S(=O)(=O)c2ccccc2)c2nc3ccccc3nc2n2c1nc1ccccc12 | 47.5 µM |

System: XF 498 CNS
Assay: NCI anticancer screen, dose series, 48 h

| Compound | TGI |
| --- | --- |
| CC(=O)O[C@@]12CO[C@@H]1CC(O)[C@@]1(C)C(=O)[C@H](O)C3=C(C)C(O)C[C@@](O)(C(OC(=O)c4ccccc4)C12)C3(C)C (some centres not stated) | > 100 µM |
| CN(C)CCCNc1ccc2ncn3c4ccc(O)cc4c(=O)c1c23 | 19.6 µM |
| Cc1ccc(NC(=O)C(=O)C2C(=O)NC(=O)NC2=O)cc1C | > 100 µM |
| C[n+]1c2ccccc2c(NC(CCCN=C(N)N)C(=O)O)c2ccccc21 (configuration not stated) | > 100 µM |
| COc1ccc2nc3cc(Cl)ccc3c(Sc3ccc(NC(C)=O)cc3)c2c1 | > 25.2 µM |
| Nc1c(S(=O)(=O)c2ccccc2)c2nc3ccccc3nc2n2c1nc1ccccc12 | > 44.5 µM |
| CCCCCCCCCCCC(=O)OC[C@@H](C[As](=O)(O)O)OC(=O)CCCCCCCCCCC | 29 µM |
| CC(=O)O[C@]12CCCCCC1C1(O)C(O)CCCCC12 (some centres not stated) | > 100 µM |
| CC(=O)OC(CCC1(C)OC1COc1ccc(CCNC(=O)C=C(C)C)cc1)C(C)(C)OC(C)=O (configuration not stated) | 86.3 µM |

From PubChem BioAssay (NCI)
